Measured values from patent US20250251402A1, “METHODS OF DETECTING MOLECULAR AGGREGATES USING IMAGE CORRELATION SPECTROSCOPY (ICS)” (The General Hospital Corporation, priority 2022, published 2025).

Assays:
Assay type in all cases: cell-based
SKOV3 cells [1] = experiment: γH2AX immunofluorescence in SKOV3 cells (intensity, Imaris Spots, ICS TNoP and DA)
Text: (§1) For the ICS analysis, nuclei were segmented from the DAPI channel using a watershed approach in MATLAB. Briefly, we applied a difference of gaussians for size-based feature extraction of nuclei in the image (upper gaussian σ=100, lower gaussian σ=2-5 dependent on cell size). This feature enhanced image was then binarized to create a primary mask (using the function imbinarize) and connected components under 100 pixels were removed (using the function bwareaopen). We then created a distance transform of the resulting binary image (using the function bwdist). Seed points were determined by finding the regional maximum of a gaussian filtered image, with a gaussian σ of appropriate size for seed point detection (σ×7 or 8 dependent on cell size). The seed points were applied to the distance transform, and we applied the watershed function to the resulting image to obtain masks for each nucleus (extracted using the function regionprops).
(§2) Using the nucleus masks, we performed ICS analysis on the antibody-stained channel, within size limitations for a nucleus (objects >400 and <2400 pixels). Intensity, DA and TNOP were calculated for each cell. In this analysis, since the ROI is defined by the nucleus mask (segmented from nuclear signal using DAPI staining), TNoP represents the total number of particles per nucleus, with the image area being the number of pixels in each nuclear mask.
(§3) Measurements across experiments were normalized by the control in each dataset. […] Data were plotted in Prism and statistical analysis was performed in Excel.
(§4) Imaris spots analysis were performed with Imaris 9.8 with background subtraction, using a spot size of 1 μm that was measured from the smallest distinguishable foci from the control image. For images with multiple nuclei, ImarisCell was used with the detection type “cell and vesicles”, where the nucleus in the DAPI channel was modelled as the “cell” and antibody-labeled foci were modelled as the “vesicles”. This enabled us to count the number of foci per nucleus for multiple cells. In each dataset, the automatic “quality” threshold was determined from the control image and the same threshold was used for every image in the dataset to be able to compare the outputs across datasets. Similar to the ICS analysis, only cells with an area between 400-2400 voxels were included for analysis.
(§5) All chemicals were purchased from Sigma unless otherwise noted. All drugs were purchased from Selleck Chemicals. Cells were cultured in media supplemented with 10% fetal bovine serum and 1% penicillin/streptomycin. OVCA429 were originally obtained from Dr. Michael Birrer and cultured in DMEM. SKOV3 was obtained from ATCC and cultured in RPMI. For MMS treatment, cells were incubated for 6 hours before fixation with 4% formaldehyde, whereas for treatment with PARP inhibitors, cells were incubated for 24 hours before fixation.
(§6) Cells were plated in 8-well slides (Fisher) to achieve 50% confluence overnight. Cells were then treated and fixed with 4% formaldehyde in PBS at room temperature for 10 minutes. Antibody staining was performed according to the manufacturers protocol (Cell Signaling Technologies or Abcam). Primary antibodies used were γH2AX (CST, #2577), RPA1 (CST, #2267) and RAD51 (Abcam, 63801), with Anti-rabbit IgG Fab2 Alexa Fluor 647 (CST, #4414) as the secondary fluorescent antibody. After antibody labeling, prolong gold with DAPI (CST) was added and samples were stored for up to 1 week prior to imaging. Confocal imaging was performed on an Olympus FV1000 multiphoton/confocal microscope using an Olympus XLUMPlanFL N 20× objective, NA 1.00 with chromatic correction, and 3× digital zoom. DAPI was excited with a 405 nm laser, while Alexa Fluor 647 was excited with a 635 nm laser. A multiband (DM 405/488/561/633 nm) dichroic mirror was used to direct the excitation laser and collect emission. […]

OVCA429 cells [2] = experiment: γH2AX immunofluorescence in OVCA429 cells (intensity, Imaris Spots, ICS TNoP and DA)
Text: as §1, §2, §3, §4, §5, §6

SKOV3 cells [3] = experiment: RPA1 immunofluorescence in SKOV3 cells (Imaris Spots, ICS DA)
Text: as §1, with “The seed points were applied to the distance transform, and we applied the watershed function to the resulting image to obtain masks for each nucleus (extracted using the function regionprops).” left out
(§7) Using the nucleus masks, we performed ICS analysis on the antibody-stained channel, within size limitations for a nucleus (objects >400 and <2400 pixels). Intensity, DA and TNOP were calculated for each cell. […]
(§8) Imaris spots analysis were performed with Imaris 9.8 with background subtraction, using a spot size of 1 μm that was measured from the smallest distinguishable foci from the control image. […] In each dataset, the automatic “quality” threshold was determined from the control image and the same threshold was used for every image in the dataset to be able to compare the outputs across datasets. […]

OVCA429 cells [4] = experiment: RPA1 immunofluorescence in OVCA429 cells (Imaris Spots, ICS DA)
Text: as §1, with “The seed points were applied to the distance transform, and we applied the watershed function to the resulting image to obtain masks for each nucleus (extracted using the function regionprops).” left out
as §7, §8

SKOV3 cells [5] = experiment: RAD51 immunofluorescence in SKOV3 cells (Imaris Spots, ICS DA)
Text: as §1, §2
Imaris spots analysis were performed with Imaris 9.8 with background subtraction, using a spot size of 1 μm that was measured from the smallest distinguishable foci from the control image. For images with multiple nuclei, ImarisCell was used with the detection type “cell and vesicles”, where the nucleus in the DAPI channel was modelled as the “cell” and antibody-labeled foci were modelled as the “vesicles”. This enabled us to count the number of foci per nucleus for multiple cells. In each dataset, the automatic “quality” threshold was determined from the control image and the same threshold was used for every image in the dataset to be able to compare the outputs across datasets. […]

OVCA429 cells [6] = experiment: RAD51 immunofluorescence in OVCA429 cells (Imaris Spots, ICS DA)
Text: as §1, with “The seed points were applied to the distance transform, and we applied the watershed function to the resulting image to obtain masks for each nucleus (extracted using the function regionprops).” left out
as §7, §8

HT1080 cells = experiment: γH2AX immunofluorescence ICS DA and nuclear intensity in HT1080 cells; settings: HT1080, 1 μM PARPi overnight
Procedure: (§9) Cells were plated in 8-well […] slides (Thermo or Ibidi) to achieve 50% confluence overnight. Cells were then treated and fixed with 4% paraformaldehyde in PBS at room temperature for 10 minutes. Antibody staining was performed according to the manufacturers protocol. Following fluorescent secondary antibody labeling, prolong gold with DAPI (Cell Signaling Technologies) was added and samples were stored for up to 1 week prior to imaging.
ICS analysis was performed in MATLAB as previously described (41). Briefly, nuclei were segmented from the DAPI channel with the MATLAB function, imbinarize, converting the greyscale image to a binary dependent on an automatically defined threshold. The MATLAB function, regionprops, was used to identify single nuclei as objects. Each nucleus was used as a mask to perform ICS analysis on the antibody-stained channel, within size limitations for a nucleus (objects >400 and <3000 pixels). To ensure the analysis of antibody stained nuclei, nuclei under an average intensity of 200 au after background subtraction were excluded. The spatial autocorrelation functions were calculated using Fourier methods, then fit to a 2D Gaussian using a nonlinear least-squares algorithm (41). Using the outputs of the fitting, the mean number of independent emitting fluorescent entities per focal spot area and subsequently the DA were determined (59). DA measurements across experiments were normalized by the control in each dataset. […] Any DA values exceeding 3 standard deviations from the mean were defined as incorrectly segmented and removed. Data were plotted in Prism and analysis performed in Prism or Excel.

HCC1937 cells = experiment: 53BP1-mApple condensate anisotropy (homo-FRET) and intensity in HCC1937 cells; settings: HCC1937, 1 μM PARPi and 100 μM TMZ for 1 hour
Procedure: All fluorescence imaging was performed on an Olympus FV1000 multiphoton/confocal microscope. Anisotropy measurements were performed through custom modifications to the imaging system as previously described (30). Briefly, linear polarization of two photon excitation light at 910 nm (MaiTai femtosecond laser, Spectra Physics) was controlled by a glan-thompson prism and half wave plate. […] was collected in orthogonal orientations through two detectors, parallel and perpendicular to excitation polarization, through a polarizing beam splitter that replaced a dichroic mirror in the emission filter cube. The alignment and detector gain and noise were validated each imaging session through measurements of a standard slide. Images were taken with an Olympus 25× XLPlan N objective, NA 1.05, and 3× digital zoom. Confocal imaging was performed with an Olympus XLUMPlanFL N 20× objective, NA 1.00 with chromatic correction, and 3× digital zoom.
Cells were grown on 12 mm round, uncoated, sterilized glass coverslips in 24-well plates for 24 hours. Cells were treated with PARPi and 100 μM TMZ for 1 hour or 10 nM GMX1778 overnight followed by 100 μM TMZ for 1 hour. TMZ was added to stimulate new DNA damage induced condensates in the presence of PARPi or NAD″ depletion. Cells were then transferred to the microscope for anisotropy imaging. Images were analyzed in MATLAB. Nuclei were segmented through intensity thresholding and condensates were segmented through further intensity thresholding with a higher threshold. Values of segmented nuclei and condensates were determined through the regionprops function. Segmentation was corrected through area restrictions to ensure that regions of interest were isolated condensates. The thresholding parameters were consistent throughout experiments. The average intensity and anisotropy of each segmented nuclei or condensate was then calculated. Data were plotted in Prism and analysis performed in Prism or Excel.

7 cell lines = experiment: γH2AX immunofluorescence DA and intensity in 7 cell lines; settings: all cell lines, 1 μM PARPi overnight
Procedure: as §9
ICS analysis was performed in MATLAB as previously described (41). Briefly, nuclei were segmented from the DAPI channel with the MATLAB function, imbinarize, converting the greyscale image to a binary dependent on an automatically defined threshold. The MATLAB function, regionprops, was used to identify single nuclei as objects. Each nucleus was used as a mask to perform ICS analysis on the antibody-stained channel, within size limitations for a nucleus (objects >400 and <3000 pixels). To ensure the analysis of antibody stained nuclei, nuclei under an average intensity of 200 au after background subtraction were excluded. The spatial autocorrelation functions were calculated using Fourier methods, then fit to a 2D Gaussian using a nonlinear least-squares algorithm (41). Using the outputs of the fitting, the mean number of independent emitting fluorescent entities per focal spot area and subsequently the DA were determined (59). […]

## COS(C)(=O)=O [MMS, methyl methane-sulfonate]
SKOV3 cells [1]; SKOV3
  ICS degree of aggregation (DA) of γH2AX, dose dependence: dose dependence
SKOV3 cells [1]; SKOV3, highest MMS dose, normalized to untreated control
  Normalized γH2AX intensity, increase: ~8 ×
OVCA429 cells [2]; OVCA429
  ICS DA of γH2AX, dose dependence: results similar to Spots analysis
  ICS TNoP of γH2AX, dose dependence: did not produce any MMS dose dependence
  Imaris Spots analysis of γH2AX, dose dependence: captured the MMS dose dependent DNA damage
OVCA429 cells [2]; OVCA429, 1 mM MMS
  γH2AX intensity: drastically increases
SKOV3 cells [3]
  RPA1 clustering (Spots analysis and ICS DA), dose dependence: dose dependent increase in RPA1 clustering
OVCA429 cells [4]; OVCA429
  RPA1 Imaris Spots analysis, dose dependence: more modest increase with increasing MMS dose
OVCA429 cells [4]; OVCA429, 1 mM MMS
  RPA1 ICS DA, increase in aggregation: exceeding 2.5 × of control
SKOV3 cells [5]; SKOV3
  RAD51 ICS DA, dose dependence: dose dependent increases in aggregation
  RAD51 Imaris Spots analysis, dose dependence: did not show an overall MMS dose dependency
SKOV3 cells [5]; SKOV3, 1 mM MMS
  RAD51 ICS DA, increase over control: 3 ×
OVCA429 cells [6]
  RAD51 ICS DA, dose dependence: dose dependent increases in aggregation
  RAD51 Imaris Spots analysis, dose dependence: did not show an overall MMS dose dependency

## Cn1ncnc1[C@H]1c2n[nH]c(=O)c3cc(F)cc(c23)N[C@@H]1c1ccc(F)cc1 [talazoparib]
HT1080 cells
  γH2AX levels measured by intensity: high levels of γH2AX
HCC1937 cells
  53BP1-mApple condensate anisotropy vs control: significantly lower condensate anisotropy compared to control
7 cell lines
  γH2AX levels (intensity) over control: increased γH2AX levels
